# Reference: patent US20100041089A1, “IMPROVED METHOD FOR DETECTING CHEMICAL […]” (priority 2006, published 2010)
# Tested on: yeast genes (expressed mRNA)
# Assay: DNA chip measurement of expressed mRNA of yeast genes after culture with a toxic chemical substance
# Assay type: cell-based, Saccharomyces cerevisiae S288C
# Summary of the method: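 Fluorescence ratio, treated over untreated, read by chip scanner; ratio of two or more counted significant. Cells: S288C yeast, YPD, 25° C, chemical added at log phase for 2 h at growth-inhibiting, sublethal level. Cy3/Cy5-labeled cDNA from oligo-dT-purified mRNA.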
structure (smiles),measurement,setting,value
"CCCCCCCCCCCCOS(=O)(=O)[O-].[Na+] [(18), Sodium lauryl sulfate]",The level of expressed mRNA in the presence of chemical substance/The level of expressed mRNA in the absence of chemical substance,"yeast gene YJR054W, cultured two hours with substance",0.9
same,The level of expressed mRNA in the presence of chemical substance/The level of expressed mRNA in the absence of chemical substance,"yeast gene YKL034W, cultured two hours with substance",1.2
same,The level of expressed mRNA in the presence of chemical substance/The level of expressed mRNA in the absence of chemical substance,"yeast gene YKL071W, cultured two hours with substance",0.9
same,The level of expressed mRNA in the presence of chemical substance/The level of expressed mRNA in the absence of chemical substance,"yeast gene YKL086W, cultured two hours with substance",1.0
same,The level of expressed mRNA in the presence of chemical substance/The level of expressed mRNA in the absence of chemical substance,"yeast gene YKL151C, cultured two hours with substance",1.8
same,The level of expressed mRNA in the presence of chemical substance/The level of expressed mRNA in the absence of chemical substance,"yeast gene YKL153W, cultured two hours with substance",1.3
same,The level of expressed mRNA in the presence of chemical substance/The level of expressed mRNA in the absence of chemical substance,"yeast gene YKL195W, cultured two hours with substance",1.6
same,The level of expressed mRNA in the presence of chemical substance/The level of expressed mRNA in the absence of chemical substance,"yeast gene YKR049C, cultured two hours with substance",3.3
same,The level of expressed mRNA in the presence of chemical substance/The level of expressed mRNA in the absence of chemical substance,"yeast gene YKR091W, cultured two hours with substance",1.3
same,The level of expressed mRNA in the presence of chemical substance/The level of expressed mRNA in the absence of chemical substance,"yeast gene YLL056C, cultured two hours with substance",2.5
same,The level of expressed mRNA in the presence of chemical substance/The level of expressed mRNA in the absence of chemical substance,"yeast gene YLR008C, cultured two hours with substance",4.9
same,The level of expressed mRNA in the presence of chemical substance/The level of expressed mRNA in the absence of chemical substance,"yeast gene YLR031W, cultured two hours with substance",1.2
same,The level of expressed mRNA in the presence of chemical substance/The level of expressed mRNA in the absence of chemical substance,yeast gene YLR046C (detoxification protein gene),5.4
same,The level of expressed mRNA in the presence of chemical substance/The level of expressed mRNA in the absence of chemical substance,"yeast gene YLR054C, cultured two hours with substance",1.1
same,The level of expressed mRNA in the presence of chemical substance/The level of expressed mRNA in the absence of chemical substance,"yeast gene YLR149C, cultured two hours with substance",3.0
same,The level of expressed mRNA in the presence of chemical substance/The level of expressed mRNA in the absence of chemical substance,"yeast gene YLR152C, cultured two hours with substance",1.8
same,The level of expressed mRNA in the presence of chemical substance/The level of expressed mRNA in the absence of chemical substance,"yeast gene YLR194C, cultured two hours with substance",0.9
same,The level of expressed mRNA in the presence of chemical substance/The level of expressed mRNA in the absence of chemical substance,"yeast gene YLR324W, cultured two hours with substance",1.2
same,The level of expressed mRNA in the presence of chemical substance/The level of expressed mRNA in the absence of chemical substance,yeast gene YLR327C,5.3
same,The level of expressed mRNA in the presence of chemical substance/The level of expressed mRNA in the absence of chemical substance,"yeast gene YLR346C, cultured two hours with substance",7.8
same,The level of expressed mRNA in the presence of chemical substance/The level of expressed mRNA in the absence of chemical substance,"yeast gene YLR350W, cultured two hours with substance",1.1
same,The level of expressed mRNA in the presence of chemical substance/The level of expressed mRNA in the absence of chemical substance,"yeast gene YLR387C, cultured two hours with substance",1.4
same,The level of expressed mRNA in the presence of chemical substance/The level of expressed mRNA in the absence of chemical substance,"yeast gene YLR460C, cultured two hours with substance",1.1
same,The level of expressed mRNA in the presence of chemical substance/The level of expressed mRNA in the absence of chemical substance,"yeast gene YML117W, cultured two hours with substance",1.3
same,The level of expressed mRNA in the presence of chemical substance/The level of expressed mRNA in the absence of chemical substance,"yeast gene YML128C, cultured two hours with substance",5.5
same,The level of expressed mRNA in the presence of chemical substance/The level of expressed mRNA in the absence of chemical substance,"yeast gene YMR009W, cultured two hours with substance",2.5
same,The level of expressed mRNA in the presence of chemical substance/The level of expressed mRNA in the absence of chemical substance,"yeast gene YMR067C, cultured two hours with substance",1.0
same,The level of expressed mRNA in the presence of chemical substance/The level of expressed mRNA in the absence of chemical substance,"yeast gene YMR090W, cultured two hours with substance",2.8
same,The level of expressed mRNA in the presence of chemical substance/The level of expressed mRNA in the absence of chemical substance,"yeast gene YMR095C, cultured two hours with substance",1.0
same,The level of expressed mRNA in the presence of chemical substance/The level of expressed mRNA in the absence of chemical substance,"yeast gene YMR097C, cultured two hours with substance",1.8
same,The level of expressed mRNA in the presence of chemical substance/The level of expressed mRNA in the absence of chemical substance,"yeast gene YMR102C, cultured two hours with substance",2.8
same,The level of expressed mRNA in the presence of chemical substance/The level of expressed mRNA in the absence of chemical substance,"yeast gene YMR107W, cultured two hours with substance",8.1
same,The level of expressed mRNA in the presence of chemical substance/The level of expressed mRNA in the absence of chemical substance,"yeast gene YMR180C, cultured two hours with substance",1.7
same,The level of expressed mRNA in the presence of chemical substance/The level of expressed mRNA in the absence of chemical substance,"yeast gene YMR184W, cultured two hours with substance",2.0
same,The level of expressed mRNA in the presence of chemical substance/The level of expressed mRNA in the absence of chemical substance,"yeast gene YMR191W, cultured two hours with substance",2.1
same,The level of expressed mRNA in the presence of chemical substance/The level of expressed mRNA in the absence of chemical substance,"yeast gene YMR295C, cultured two hours with substance",3.4
same,The level of expressed mRNA in the presence of chemical substance/The level of expressed mRNA in the absence of chemical substance,"yeast gene YMR316W, cultured two hours with substance",6.4
same,The level of expressed mRNA in the presence of chemical substance/The level of expressed mRNA in the absence of chemical substance,"yeast gene YNL044W, cultured two hours with substance",3.4
same,The level of expressed mRNA in the presence of chemical substance/The level of expressed mRNA in the absence of chemical substance,"yeast gene YNL074C, cultured two hours with substance",1.3
same,The level of expressed mRNA in the presence of chemical substance/The level of expressed mRNA in the absence of chemical substance,"yeast gene YNL092W, cultured two hours with substance",1.6
same,The level of expressed mRNA in the presence of chemical substance/The level of expressed mRNA in the absence of chemical substance,"yeast gene YNL115C, cultured two hours with substance",2.6
same,The level of expressed mRNA in the presence of chemical substance/The level of expressed mRNA in the absence of chemical substance,"yeast gene YNL156C, cultured two hours with substance",1.9
same,The level of expressed mRNA in the presence of chemical substance/The level of expressed mRNA in the absence of chemical substance,"yeast gene YNL190W, cultured two hours with substance",0.8
same,The level of expressed mRNA in the presence of chemical substance/The level of expressed mRNA in the absence of chemical substance,"yeast gene YNL208W, cultured two hours with substance",1.0
same,The level of expressed mRNA in the presence of chemical substance/The level of expressed mRNA in the absence of chemical substance,"yeast gene YNL211C, cultured two hours with substance",6.8
same,The level of expressed mRNA in the presence of chemical substance/The level of expressed mRNA in the absence of chemical substance,"yeast gene YNL234W, cultured two hours with substance",1.0
same,The level of expressed mRNA in the presence of chemical substance/The level of expressed mRNA in the absence of chemical substance,"yeast gene YNL281W, cultured two hours with substance",0.9
same,The level of expressed mRNA in the presence of chemical substance/The level of expressed mRNA in the absence of chemical substance,"yeast gene YNL300W, cultured two hours with substance",0.8
same,The level of expressed mRNA in the presence of chemical substance/The level of expressed mRNA in the absence of chemical substance,"yeast gene YNL305C, cultured two hours with substance",1.6
same,The level of expressed mRNA in the presence of chemical substance/The level of expressed mRNA in the absence of chemical substance,"yeast gene YNR064C, cultured two hours with substance",1.9
same,The level of expressed mRNA in the presence of chemical substance/The level of expressed mRNA in the absence of chemical substance,"yeast gene YNR068C, cultured two hours with substance",1.0
same,The level of expressed mRNA in the presence of chemical substance/The level of expressed mRNA in the absence of chemical substance,"yeast gene YOL032W, cultured two hours with substance",1.8
same,The level of expressed mRNA in the presence of chemical substance/The level of expressed mRNA in the absence of chemical substance,"yeast gene YOL036W, cultured two hours with substance",0.9
same,The level of expressed mRNA in the presence of chemical substance/The level of expressed mRNA in the absence of chemical substance,"yeast gene YOL047C, cultured two hours with substance",1.0
same,The level of expressed mRNA in the presence of chemical substance/The level of expressed mRNA in the absence of chemical substance,"yeast gene YOL071W, cultured two hours with substance",2.0
same,The level of expressed mRNA in the presence of chemical substance/The level of expressed mRNA in the absence of chemical substance,"yeast gene YOL073C, cultured two hours with the chemical substance",1.2
same,The level of expressed mRNA in the presence of chemical substance/The level of expressed mRNA in the absence of chemical substance,"yeast gene YOL082W, cultured two hours with substance",2.5
same,The level of expressed mRNA in the presence of chemical substance/The level of expressed mRNA in the absence of chemical substance,"yeast gene YOL083W, cultured two hours with substance",3.2
same,The level of expressed mRNA in the presence of chemical substance/The level of expressed mRNA in the absence of chemical substance,"yeast gene YOL117W, cultured two hours with substance",1.4
same,The level of expressed mRNA in the presence of chemical substance/The level of expressed mRNA in the absence of chemical substance,"yeast gene YOL131W, cultured two hours with substance",0.9
same,The level of expressed mRNA in the presence of chemical substance/The level of expressed mRNA in the absence of chemical substance,"yeast gene YOL150C, cultured two hours with substance",2.2
same,The level of expressed mRNA in the presence of chemical substance/The level of expressed mRNA in the absence of chemical substance,"yeast gene YOL162W, cultured two hours with substance",0.9
same,The level of expressed mRNA in the presence of chemical substance/The level of expressed mRNA in the absence of chemical substance,"yeast gene YOR019W, cultured two hours with substance",2.8
same,The level of expressed mRNA in the presence of chemical substance/The level of expressed mRNA in the absence of chemical substance,"yeast gene YOR161C, cultured two hours with the chemical substance",1.2
same,The level of expressed mRNA in the presence of chemical substance/The level of expressed mRNA in the absence of chemical substance,"yeast gene YOR173W, cultured two hours with substance",3.8
same,The level of expressed mRNA in the presence of chemical substance/The level of expressed mRNA in the absence of chemical substance,"yeast gene YOR197W, cultured two hours with substance",1.5
same,The level of expressed mRNA in the presence of chemical substance/The level of expressed mRNA in the absence of chemical substance,"yeast gene YOR248W, cultured two hours with substance",0.8
same,The level of expressed mRNA in the presence of chemical substance/The level of expressed mRNA in the absence of chemical substance,"yeast gene YOR289W, cultured two hours with substance",3.9
same,The level of expressed mRNA in the presence of chemical substance/The level of expressed mRNA in the absence of chemical substance,"yeast gene YPL052W, cultured two hours with substance",1.5
same,The level of expressed mRNA in the presence of chemical substance/The level of expressed mRNA in the absence of chemical substance,"yeast gene YPL087W, cultured two hours with substance",2.7
same,The level of expressed mRNA in the presence of chemical substance/The level of expressed mRNA in the absence of chemical substance,"yeast gene YPL196W, cultured two hours with substance",2.3
same,The level of expressed mRNA in the presence of chemical substance/The level of expressed mRNA in the absence of chemical substance,"yeast gene YPL206C, cultured two hours with substance",1.9
same,The level of expressed mRNA in the presence of chemical substance/The level of expressed mRNA in the absence of chemical substance,"yeast gene YPL222W, cultured two hours with substance",0.9
same,The level of expressed mRNA in the presence of chemical substance/The level of expressed mRNA in the absence of chemical substance,"yeast gene YPL272C, cultured two hours with the chemical substance",1.2
same,The level of expressed mRNA in the presence of chemical substance/The level of expressed mRNA in the absence of chemical substance,"yeast gene YPR023C, cultured two hours with substance",1.1
same,The level of expressed mRNA in the presence of chemical substance/The level of expressed mRNA in the absence of chemical substance,"yeast gene YPR079W, cultured two hours with substance",1.5
same,The level of expressed mRNA in the presence of chemical substance/The level of expressed mRNA in the absence of chemical substance,"yeast gene YPR127W, cultured two hours with substance",1.2
same,The level of expressed mRNA in the presence of chemical substance/The level of expressed mRNA in the absence of chemical substance,"yeast gene YPR151C, cultured two hours with substance",1.4
